Results as given in patent US10588317B2, “Isoxazoline-substituted benzamides and analogues as insecticides” (priority 2015, dated 2020).

Legend:
Type in all cases: in vivo
[1] = system: Spodoptera littoralis; assay: Spodoptera littoralis (Egyptian cotton leaf worm), sprayed cotton leaf discs; conditions: foliar, 72 h, application rate 200 ppm, L1 larvae, 3 days after infestation, read-out: control (mortality, anti-feeding effect, growth inhibition)
Summary of the method: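 Five first-instar larvae placed on dried cotton leaf discs (on agar) previously sprayed with aqueous dilutions of 10'000 ppm DMSO stocks. Scored at 3 days against untreated discs for mortality, feeding inhibition and growth inhibition; any category above untreated counts as control.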

[2] = system: Plutella xylostella; assay: Plutella xylostella (diamond back moth), artificial diet; conditions: 120 h, application rate 200 ppm, L2 larvae, 5 days after infestation, read-out: effect in at least one of the two categories (mortality or growth inhibition)
Summary of the method: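 L2 larvae (10-15 per well) fed on compound-treated, dried artificial diet; test solutions diluted in water from 10'000 ppm DMSO stocks. Readout 5 days post-infestation as mortality or growth inhibition versus untreated diet, with at least 80% effect at 200 ppm as threshold.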

[3] = system: Euschistus heros; assay: Euschistus heros (neotropical brown stink bug), sprayed soybean leaves; conditions: 120 h, application rate 200 ppm, N2 nymphs, 5 days after infestation, read-out: effect in at least one of the two categories (mortality or growth inhibition)
Summary of the method: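 Scored 5 days post-infestation versus untreated controls, for both mortality and growth inhibition: N2 nymphs placed on agar-mounted soybean leaves previously sprayed at 200 ppm with aqueous test solutions from DMSO stocks and left to dry.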

[4] = system: Diabrotica balteata; assay: Diabrotica balteata (corn root worm), sprayed maize sprouts; conditions: 96 h, application rate 200 ppm, L2 larvae, 4 days after infestation, read-out: effect in at least one of the two categories (mortality or growth inhibition)
Summary of the method: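 Read-out at 4 days post-infestation: mortality and growth inhibition relative to untreated samples. Test solutions (200 ppm, from DMSO stocks) were sprayed onto agar-held maize sprouts, which after drying received 6–10 L2 larvae per well.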

[5] = system: Myzus persicae; assay: Myzus persicae (green peach aphid): feeding/contact activity; conditions: 144 h, application rate 200 ppm, aphid population of mixed ages, 6 days after infestation, read-out: mortality
Experimental: (§1) Sunflower leaf discs were placed onto agar in a 24-well microtiter plate and sprayed with aqueous test solutions prepared from 10'000 ppm DMSO stock solutions. After drying, the leaf discs were infested with an aphid population of mixed ages. The samples were assessed for mortality 6 days after infestation.

[6] = system: Tetranychus urticae; assay: Tetranychus urticae (two-spotted spider mite): feeding/contact activity; conditions: 192 h, application rate 200 ppm, mixed population (mobile stages), 8 days after infestation, read-out: mortality
Experimental: Bean leaf discs on agar in 24-well microtiter plates were sprayed with aqueous test solutions prepared from 10'000 ppm DMSO stock solutions. After drying the leaf discs were infested with a mite population of mixed ages. The samples were assessed for mortality on mixed population (mobile stages) 8 days after infestation.

[7] = system: Thrips tabaci; assay: Thrips tabaci (onion thrips): feeding/contact activity; conditions: 144 h, application rate 200 ppm, Thrips population of mixed ages, 6 days after infestation, read-out: mortality
Experimental: as §1, with “on” for “onto”, “in” for “in a”, “plates” for “plate”, “drying” for “drying,”, “a Thrips” for “an aphid”

[8] = system: Spodoptera littoralis; assay: Spodoptera littoralis (Egyptian cotton leaf worm), uptake by lettuce roots from agar; conditions: 144 h, read-out: effect in at least one of the three categories (mortality, anti-feeding, or growth inhibition)
Excerpt: Test compounds were applied by pipette from 10'000 ppm DMSO stock solutions into 24-well plates and mixed with agar. Lettuce seeds were placed onto the agar and the multi well plate was closed by another plate which contained also agar. After 7 days the compound was absorbed by the roots and the lettuce grew into the lid plate. The lettuce leaves were then cut off into the lid plate. Spodoptera eggs were pipetted through a plastic stencil onto a humid gel blotting paper and the lid plate was closed with it. The samples were assessed for mortality, anti-feedant effect and growth inhibition in comparison to untreated samples 6 days after infestation.
The following compounds gave an effect of at least 80% in at least one of the three categories (mortality, anti-feeding, or growth inhibition) at a test rate of 12.5 ppm: […]

CCS(=O)(=O)N1C[C@@H](NC(=O)c2ccc(C3=NO[C@@](c4cc(Cl)cc(Cl)c4)(C(F)(F)F)C3)cc2Cl)CO1 [Compound A117]
≥ 80%: mortality at 200 ppm [1] | percent effect (mortality or growth inhibition) at 200 ppm [2] | percent effect (mortality or growth inhibition) at 200 ppm [3] | percent effect (mortality or growth inhibition) at 200 ppm [4] | mortality at 200 ppm [5] | mortality at 200 ppm [6] | mortality at 200 ppm [7] | percent control (mortality, anti-feedant effect or growth inhibition) at 12.5 ppm [8]

CS(=O)(=O)N1C[C@@H](NC(=O)c2ccc(C3=NO[C@@](c4cc(Cl)cc(C(F)(F)F)c4)(C(F)(F)F)C3)cc2Cl)CO1 [Compound A123]
≥ 80%: mortality at 200 ppm [1] | percent effect (mortality or growth inhibition) at 200 ppm [2] | percent effect (mortality or growth inhibition) at 200 ppm [3] | percent effect (mortality or growth inhibition) at 200 ppm [4] | mortality at 200 ppm [5] | mortality at 200 ppm [6] | mortality at 200 ppm [7] | percent control (mortality, anti-feedant effect or growth inhibition) at 12.5 ppm [8]

Cc1cc(C2=NO[C@@](c3cc(Cl)cc(C(F)(F)F)c3)(C(F)(F)F)C2)ccc1C(=O)N[C@H]1CON(S(=O)(=O)N(C)C)C1 [Compound A91]
≥ 80%: mortality at 200 ppm [1] | percent effect (mortality or growth inhibition) at 200 ppm [2] | percent effect (mortality or growth inhibition) at 200 ppm [3] | percent effect (mortality or growth inhibition) at 200 ppm [4] | mortality at 200 ppm [5] | mortality at 200 ppm [6] | mortality at 200 ppm [7] | percent control (mortality, anti-feedant effect or growth inhibition) at 12.5 ppm [8]

Cc1cc(C2=NO[C@@](c3cc(Cl)c(F)c(Cl)c3)(C(F)(F)F)C2)ccc1C(=O)NC1CON(S(=O)(=O)N(C)C#N)C1 (stereo partly drawn) [Compound A81, N-[2-[cyano(methyl)sulfamoyl]isoxazolidin-4-yl]-4-[(5S)-5-(3,5-dichloro-4-fluoro-phenyl)-5-(trifluoromethyl)-4H-isoxazol-3-yl]-2-methyl-benzamide]
≥ 80%: mortality at 200 ppm [1] | percent effect (mortality or growth inhibition) at 200 ppm [2] | percent effect (mortality or growth inhibition) at 200 ppm [3] | percent effect (mortality or growth inhibition) at 200 ppm [4] | mortality at 200 ppm [5] | mortality at 200 ppm [6] | mortality at 200 ppm [7] | percent control (mortality, anti-feedant effect or growth inhibition) at 12.5 ppm [8]

CCN(C)S(=O)(=O)N1C[C@@H](NC(=O)c2ccc(C3=NO[C@@](c4cc(Cl)cc(C(F)(F)F)c4)(C(F)(F)F)C3)cc2Cl)CO1 [Compound A130, 2-chloro-4-[(5S)-5-[3-chloro-5-(trifluoromethyl)phenyl]-5-(trifluoromethyl)-4H-isoxazol-3-yl]-N-[(4R)-2-[ethyl(methyl)sulfamoyl]isoxazolidin-4-yl]benzamide]
≥ 80%: mortality at 200 ppm [1] | percent effect (mortality or growth inhibition) at 200 ppm [2] | percent effect (mortality or growth inhibition) at 200 ppm [3] | percent effect (mortality or growth inhibition) at 200 ppm [4] | mortality at 200 ppm [5] | mortality at 200 ppm [6] | mortality at 200 ppm [7] | percent control (mortality, anti-feedant effect or growth inhibition) at 12.5 ppm [8]

Cc1cc(C2=NO[C@@](c3cc(Cl)cc(C(F)(F)F)c3)(C(F)(F)F)C2)ccc1C(=O)NC1CON(S(C)(=O)=O)C1 (stereo partly shown) [Compound A20]
≥ 80%: mortality at 200 ppm [1] | percent effect (mortality or growth inhibition) at 200 ppm [2] | percent effect (mortality or growth inhibition) at 200 ppm [3] | percent effect (mortality or growth inhibition) at 200 ppm [4] | mortality at 200 ppm [5] | mortality at 200 ppm [6] | mortality at 200 ppm [7] | percent control (mortality, anti-feedant effect or growth inhibition) at 12.5 ppm [8]

CN(C)S(=O)(=O)N1C[C@@H](NC(=O)c2ccc(C3=NO[C@@](c4cc(Cl)cc(C(F)(F)F)c4)(C(F)(F)F)C3)cc2Cl)CO1 [Compound A108]
≥ 80%: mortality at 200 ppm [1] | percent effect (mortality or growth inhibition) at 200 ppm [2] | percent effect (mortality or growth inhibition) at 200 ppm [3] | percent effect (mortality or growth inhibition) at 200 ppm [4] | mortality at 200 ppm [5] | mortality at 200 ppm [6] | mortality at 200 ppm [7] | percent control (mortality, anti-feedant effect or growth inhibition) at 12.5 ppm [8]

Cc1cc(C2=NO[C@@](c3cc(Cl)c(F)c(Cl)c3)(C(F)(F)F)C2)ccc1C(=O)NC1CON(S(=O)(=O)N(C)C(=O)c2cccnc2)C1 (stereo partly shown) [Compound A78]
≥ 80%: mortality at 200 ppm [1] | percent effect (mortality or growth inhibition) at 200 ppm [2] | percent effect (mortality or growth inhibition) at 200 ppm [3] | percent effect (mortality or growth inhibition) at 200 ppm [4] | mortality at 200 ppm [5] | mortality at 200 ppm [6] | mortality at 200 ppm [7] | percent effect (mortality, anti-feeding or growth inhibition) at 12.5 ppm ([8]; test rate 12.5 ppm, eggs, 6 days after infestation)

CCN(CC)S(=O)(=O)N1CC(NC(=O)c2ccc(C3=NO[C@@](c4cc(Cl)c(F)c(Cl)c4)(C(F)(F)F)C3)cc2C)CO1 (stereo partly drawn) [Compound A98, 4-[(5S)-5-(3,5-dichloro-4-fluoro-phenyl)-5-(trifluoromethyl)-4H-isoxazol-3-yl]-N-[2-(diethylsulfamoyl)isoxazolidin-4-yl]-2-methyl-benzamide]
≥ 80%: mortality at 200 ppm [1] | percent effect (mortality or growth inhibition) at 200 ppm [2] | percent effect (mortality or growth inhibition) at 200 ppm [3] | percent effect (mortality or growth inhibition) at 200 ppm [4] | mortality at 200 ppm [5] | mortality at 200 ppm [6] | mortality at 200 ppm [7] | percent control (mortality, anti-feedant effect or growth inhibition) at 12.5 ppm [8]

CN(C)S(=O)(=O)N1C[C@@H](NC(=O)c2ccc(C3=NO[C@@](c4cc(Cl)c(F)c(Cl)c4)(C(F)(F)F)C3)cc2Cl)CO1 [Compound A107]
≥ 80%: mortality at 200 ppm [1] | percent effect (mortality or growth inhibition) at 200 ppm [2] | percent effect (mortality or growth inhibition) at 200 ppm [3] | percent effect (mortality or growth inhibition) at 200 ppm [4] | mortality at 200 ppm [5] | mortality at 200 ppm [6] | mortality at 200 ppm [7] | percent control (mortality, anti-feedant effect or growth inhibition) at 12.5 ppm [8]

C#CCNS(=O)(=O)N1C[C@@H](NC(=O)c2ccc(C3=NO[C@@](c4cc(Cl)cc(Cl)c4)(C(F)(F)F)C3)cc2Cl)CO1 [Compound A158]
≥ 80%: mortality at 200 ppm [1] | percent effect (mortality or growth inhibition) at 200 ppm [2] | percent effect (mortality or growth inhibition) at 200 ppm [3] | percent effect (mortality or growth inhibition) at 200 ppm [4] | mortality at 200 ppm [5] | mortality at 200 ppm [6] | mortality at 200 ppm [7] | percent control (mortality, anti-feedant effect or growth inhibition) at 12.5 ppm [8]

CCN(C)S(=O)(=O)N1C[C@@H](NC(=O)c2ccc(C3=NO[C@@](c4cc(Cl)c(Cl)c(Cl)c4)(C(F)(F)F)C3)cc2C)CO1 [Compound A72, N-[(4R)-2-[ethyl(methyl)sulfamoyl]isoxazolidin-4-yl]-2-methyl-4-[(5S)-5-(3,4,5-trichlorophenyl)-5-(trifluoromethyl)-4H-isoxazol-3-yl]benzamide]
≥ 80%: mortality at 200 ppm [1] | percent effect (mortality or growth inhibition) at 200 ppm [2] | percent effect (mortality or growth inhibition) at 200 ppm [3] | percent effect (mortality or growth inhibition) at 200 ppm [4] | mortality at 200 ppm [5] | mortality at 200 ppm [6] | mortality at 200 ppm [7] | percent control (mortality, anti-feedant effect or growth inhibition) at 12.5 ppm [8]

Cc1cc(C2=NO[C@@](c3cc(Cl)cc(Cl)c3)(C(F)(F)F)C2)ccc1C(=O)NC1CON(S(=O)(=O)N(C)C)C1 (stereo partly shown) [Compound A41]
≥ 80%: mortality at 200 ppm [1] | percent effect (mortality or growth inhibition) at 200 ppm [2] | percent effect (mortality or growth inhibition) at 200 ppm [3] | percent effect (mortality or growth inhibition) at 200 ppm [4] | mortality at 200 ppm [5] | mortality at 200 ppm [6] | mortality at 200 ppm [7] | percent control (mortality, anti-feedant effect or growth inhibition) at 12.5 ppm [8]

Cc1cc(C2=NO[C@@](c3cc(Cl)c(F)c(Cl)c3)(C(F)(F)F)C2)ccc1C(=O)N[C@H]1CON(S(=O)(=O)N(C)C)C1 (single isomer, unassigned) [Compound A143]
≥ 80%: mortality at 200 ppm [1] | percent effect (mortality or growth inhibition) at 200 ppm [2] | percent effect (mortality or growth inhibition) at 200 ppm [3] | percent effect (mortality or growth inhibition) at 200 ppm [4] | mortality at 200 ppm [5] | mortality at 200 ppm [6] | mortality at 200 ppm [7] | percent control (mortality, anti-feedant effect or growth inhibition) at 12.5 ppm [8]
